Results reported in patent publication US9260461B2, “Water-soluble derivatives and prodrugs of acacetin and methods of making and using thereof” (Versitech Limited, priority 2014, dated 2016).
Converted amounts (≈) assume the structure as drawn.

How the values were obtained:
[1] = target: T1, Kv1.5 current (hKV1.5 gene expressed in HEK 293 cells) (Homo sapiens, UniProt P22460); assay: Whole-cell patch-clamp, Kv1.5 current in HEK 293 cells; type: cell-based; conditions: 30 μM, representative cells
T1 construct: expressed in transfected cells
T1 sequence (P22460 whole entry): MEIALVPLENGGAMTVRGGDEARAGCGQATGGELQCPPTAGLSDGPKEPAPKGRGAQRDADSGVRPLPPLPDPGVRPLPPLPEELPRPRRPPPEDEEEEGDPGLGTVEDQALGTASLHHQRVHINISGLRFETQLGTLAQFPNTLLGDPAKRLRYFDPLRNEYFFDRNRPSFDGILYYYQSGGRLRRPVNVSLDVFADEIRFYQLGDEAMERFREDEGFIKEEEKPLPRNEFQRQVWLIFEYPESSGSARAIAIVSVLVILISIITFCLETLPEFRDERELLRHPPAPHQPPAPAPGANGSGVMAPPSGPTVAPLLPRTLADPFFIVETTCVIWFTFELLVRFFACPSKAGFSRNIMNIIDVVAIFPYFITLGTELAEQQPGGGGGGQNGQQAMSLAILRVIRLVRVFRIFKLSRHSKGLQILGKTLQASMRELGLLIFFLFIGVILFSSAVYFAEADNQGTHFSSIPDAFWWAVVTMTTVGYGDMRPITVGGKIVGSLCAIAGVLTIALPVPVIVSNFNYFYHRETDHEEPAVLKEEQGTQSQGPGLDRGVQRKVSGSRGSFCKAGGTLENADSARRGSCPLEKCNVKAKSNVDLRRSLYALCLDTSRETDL
Method: HEK 293 cell line stably expressing the hKV1.5 gene (Wu et al., 2011) or hKv4.3 gene (Wu et al., 2013) was maintained in Dulbecco's modified eagle's medium (DMEM, Invitrogen, Hong Kong) supplemented with 10% fetal bovine serum and 400 μg/mL G418 in a 5% CO2 incubator. Cells were seeded on a glass cover slip for electrophysiology recording.
Ionic currents in HEK 293 cell lines and rat atrial myocytes were measured by the standard whole-cell patch-clamp technique using a standard pipette and bath solution with an EPC-10 amplifier and Pulse software (HEKA, Lambrecht, Germany). A 3M KCl-agar salt bridge was used as the reference electrode. The current signal was sampled at 5 kHz, recorded and stored in the hard disk of an IBM compatible computer. All experiments were conducted at room temperature (22-23° C.).
However, Kv1.5 current (FIG. 3D), Kv4.3 current (FIG. 3E) or IKACh (FIG. 3F) was inhibited by 10 μM acacetin in representative cells consistent with experimental reports.

[2] = test system: ventricular arrhythmias induced by ischemia-reperfusion injury; assay: Ischemia-reperfusion model in anesthetized rats (ventricular arrhythmias, heart rate, left ventricular contractile function); type: in vivo, Sprague-Dawley (SD) rats; conditions: for incidence of severe ventricular fibrillation: 90% in vehicle, P<0.05
Method: Adult male Sprague-Dawley (SD) rats (250-300 g) were anesthetized with pentobarbital (30 mg/kg i.p.), supplemented during the experiment when needed. The animal was intubated and ventilated. Body temperature was maintained at 37° C. with a temperature control system. The jugular vein was cannulated for drug administration and a plastic tubing (0.8 mm OD) was introduced into the left ventricle through the […] to measure the contractile function (e.g. left ventricular pressure). The left chest was opened under ventilation to expose the coronary artery. A fine silk was introduced at the upper ⅓ left anterior coronary descending artery (LA). After a 10-min stabilization period, the drug at 5, 10, or 20 mg/kg was intravenously administrated respectively in 5 min, and an equal volume (1 mL/kg) of vehicle was administrated for the control. LAD was then ligated for 10 min followed a 30-min reperfusion. ECG and blood pressure signals were continuously monitored and stored on an IBM compatible PC computer using a multiple channels data acquisition system (RM-6280C, Chengdu Instrument Ltd, Chendu, China) to record the incidence of ventricular arrhythmia (i.e. fibrillation, tachycardia, and premature beats) and […].
To investigate the effects of water-soluble Prodrug A on ventricular arrhythmias induced by ischemia-reperfusion injury, the in vivo ischemia-reperfusion model was established in SD rats. In this model, the animal, ventricular arrhythmias, including premature ventricular beats (PVBs), and ventricular tachycardia (VT), were developed with 10 min ischemia (ligation of coronary anterior descending artery) followed by […]. Ventricular fibrillation was frequently observed during the early reperfusion in the control animal with intravenous vehicle (FIG. 1A), but not in the animal treated with intravenous Prodrug A (10 mg/kg for 5 min, FIG. 1B). Prodrug A at 5 mg, 10, and 20 mg/kg decreased arrhythmia score (FIG. 1C) and arrhythmia duration in a dose-dependent manner (P<0.05 or P<0.01 vs. vehicle).
In addition to the anti-ventricular fibrillation, Prodrug A prevented heart rate reduction (FIG. 2A), and improved the decreased function contractile function including left ventricular systolic pressure (FIG. 2B), development pressure (FIG. 2C), and +dP/dT (FIG. 2D) induced by ischemia and/or reperfusion injury in a dose-dependent manner (P<0.05 or P<0.01 vs. vehicle).

[3] = test system: myocardial infarction induced by ischemia-reperfusion; assay: Ventricular infarct area (TTC staining) in anesthetized rats with ischemia-reperfusion; type: in vivo; conditions: 10 mg/kg i.v.; n=4, P<0.01 vs vehicle
[4] = Solubility of the purified prodrugs versus parent compound acacetin; type: physicochemical; conditions: aqueous buffer; Tris solution, pH=7.0; read-out: solubility in Tris solution
Text: Prodrug B: Light yellow solid. Yield 54%. C16H11O7PNa2 (408.21). EI-MS: m/z 387.04 [M+H—Na]^+. ^1H NMR (400 MHz, DMSO-d6): δ=12.90 (s, 1H), 8.04 (d, J=8.8 Hz, 2H), 7.10 (d, J=8.8 Hz, 2H), 7.02 (s, 1H), 6.98 (s, 1H), 6.60 (s, 1H), 3.89 (s, 3H) ppm.

[5] = In vivo conversion of prodrugs to acacetin, HPLC of blood samples from anesthetized rats; design: species or system SD rats
Method: Male SD rats (250-300 g) was anesthetized with phenobarbital (30 mg/kg, i.p.), and the jugular vein and femoral vein were cannulated for drug administration and blood sample collection. Tracheal cannulation was also performed for ventilation. Drug (20 mg/kg) was administrated for 30-60 min, and blood samples (˜0.2 mL) were collected before and at 5, 15, 30, 60, 90, and 120 min after drug administration using ascorbic acid and EDTA-preserved microcentrifuge tubes (1.5 mL) for HPLC (high-performance liquid chromatography) analysis of acacetin conversion.
The samples were stored in a −80° C. freezer until HPLC analysis for acacetin content. Except for the double blanks, pentamethylquercetin (500 ng/mL) was used for concentration calibration. The analysis was carried out on a Waters HPLC system (Milford, Mass.) equipped with an Alltech column (C18, 250 mm×4.6 mm i.d., 5 μm, Grace, Deerfield, Ill.). The mobile phase consisted of 45% acetonitrile in 1% of acetic acid. The UV detector was set at a single wavelength of 260 nm. The lower limit of quantification was 50 ng/mL.
The in vivo conversion of water-soluble prodrug A was determined in anesthetized SD rats. Prodrug A (20 mg/kg i.v.) was infused for 30-60 min, and levels of the parent compound acacetin in blood plasma were determined by HPLC analysis.

[6] = 10 mg and 20 mg/kg, before ligation
[7] = 5, 10 and 20 mg/kg i.v., dose-dependent, P<0.05 or P<0.01 vs. vehicle
[8] = i.v., dose-dependent, P<0.05 or P<0.01 vs. vehicle

With `COc1ccc(-c2cc(=O)c3c(O)cc(OP(=O)(O)O)cc3o2)cc1` [Prodrug A] the “effect on Kv1.5 current” value [1] was “no inhibitory effect”, the “heart rate before coronary artery ligation” value [2, 6] was “without affecting” and the “left ventricular development pressure before coronary artery ligation” value [2, 6] was “slightly but significantly increased”. The “left ventricular systolic pressure before coronary artery ligation” value [2, 6] was “slightly but significantly increased”, the “incidence of severe ventricular fibrillation” value ([2]; 10 mg/kg i.v.) was 30% and the “incidence of severe ventricular fibrillation” value ([2]; 20 mg/kg i.v.) was 20%. The arrhythmia duration [2, 7] was “decreased”, the arrhythmia score [2, 7] was “decreased” and the “decreased +dP/dT induced by ischemia and/or reperfusion injury” value [2, 8] was “improved”. The “decreased left ventricular development pressure induced by ischemia and/or reperfusion injury” value [2, 8] was “improved”, the “decreased left ventricular systolic pressure induced by ischemia and/or reperfusion injury” value [2, 8] was “improved” and the “heart rate reduction induced by ischemia and/or reperfusion injury” value [2, 8] was “prevented”. The ventricular infarct area [3] was “reduced”, the solubility [4] was 10 mg/mL (≈ 27.5 mM) and the “concentrations of acacetin at different time-points after prodrug administration” value [5] was “can reach therapeutic concentrations”.
